Results on 8 molecules are retold here after publication PMC9653409, “Generative deep learning enables the discovery of a potent and selective RIPK1 inhibitor” (Nature Communications, 2022).

Data set [1] deals with T1, RIPK1 (Homo sapiens, UniProt Q13546).
T1 sequence (Q13546 1-671): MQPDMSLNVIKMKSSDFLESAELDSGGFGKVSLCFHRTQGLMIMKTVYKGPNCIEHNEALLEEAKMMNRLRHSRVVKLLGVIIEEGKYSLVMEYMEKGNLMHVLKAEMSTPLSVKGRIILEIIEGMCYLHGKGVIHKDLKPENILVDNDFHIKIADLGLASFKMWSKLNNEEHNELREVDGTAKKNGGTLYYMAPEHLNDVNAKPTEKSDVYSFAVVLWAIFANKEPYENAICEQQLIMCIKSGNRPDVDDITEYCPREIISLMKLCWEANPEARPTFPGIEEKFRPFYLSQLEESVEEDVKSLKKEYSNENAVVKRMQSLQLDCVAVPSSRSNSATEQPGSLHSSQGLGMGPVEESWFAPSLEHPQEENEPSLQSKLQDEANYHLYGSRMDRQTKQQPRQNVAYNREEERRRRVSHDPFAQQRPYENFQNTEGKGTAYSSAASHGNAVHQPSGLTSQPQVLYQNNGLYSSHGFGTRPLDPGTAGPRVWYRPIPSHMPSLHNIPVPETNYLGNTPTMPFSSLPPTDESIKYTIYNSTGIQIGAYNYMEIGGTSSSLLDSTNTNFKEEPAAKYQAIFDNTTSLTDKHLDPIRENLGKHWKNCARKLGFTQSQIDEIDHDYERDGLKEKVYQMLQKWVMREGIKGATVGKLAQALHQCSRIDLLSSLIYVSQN
As to conditions: cited from earlier work.

Data set [2] addresses T1, RIPK1. Put plainly: RIPK1 kinase assay, 33P-labeled ATP assay at Eurofins. In kind it is biochemical. As to conditions: read-out: RIPK1 IC50. The method, then:
In vitro kinase activity assays were conducted through the Kinase Profiling Services provided by Eurofins (Eurofins, France). The protocol for the RIPK1 assay is briefly described as follows (Protocols for other kinases are very similar and can be found in http://www.eurofins.com/pharmadiscovery). RIPK1 kinase was incubated with the test compound in assay buffer containing 8 mM MOPS (pH 7.0), 0.2 mM EDTA, 250 μM […], 10 mM magnesium acetate, and 10 μM [γ-33P]-ATP for 15 min at room temperature. The reaction was initiated by the addition of the Mg/ATP mixture. After incubation for 40 min at room temperature, and the reaction was stopped by the addition of 3% phosphoric acid. A 10 μL portion of the reaction mixture was then spotted onto a P30 filter mat and washed four times for 4 min in 0.425% phosphoric acid and once in methanol prior to drying and scintillation counting.

Data set [3] in a line: Cytotoxicity at high concentration. The class given is cell-based. As to conditions: 3-10 μM.
For another data set, the system named is HT29 cells. Put plainly: TSZ-induced HT29 cell necroptosis model (CCK8). The class given is cell-based. The conditions noted are these: Homo sapiens, HT-29; TSZ-induced necroptosis; read-out: HT29 EC50. The method, then: Cell necroptosis protection assays were performed in 96-well cell culture plates. Cells were plated in each well and cultured at 37 °C overnight. […] The cell survival rate was determined using a CCK8 cell viability assay kit and CLARIOstar (v5.61). […] All experiments were performed at least two times, and each EC50 value was expressed as mean ± standard deviation (SD).

SMILES strings stand for the structures.

Take `CN1C(=O)NC(Cc2c[nH]c3c(Cl)cccc23)C1=O` (centres unmarked) [Nec-1a]: at RIPK1 [1], the “potency against RIPK1” value is 0.317 µM.
For orientation: IC50 means the midpoint of a concentration-inhibition curve. What is called EC50 is the concentration giving half of the maximal effect. With `CC(NC(=O)c1cn(C)c2ccc(-c3ccn4nc(NC(=O)C5CC5)cc4n3)cc12)c1ccccc1` (centres unmarked) [RI-056], the IC50 at RIPK1 [2] worked out at 0.065 µM. Also, the cytotoxicity result in data set [3] was “some cytotoxicity at high concentration (3-10 μM)”. Further, the EC50 in the data set with HT29 cells turned out to be 0.049 µM.
As to `CNC(=O)c1n[nH]c2cc(-c3ccc(C(=O)NCc4ccc(OCCC5CC5)cc4)nc3)ccc12` [RI-413], on RIPK1 [2], the IC50 was over 10 µM. Moreover, in the data set on HT29 cells, the EC50 was over 30 µM.
As for `CC(NCC(=O)Nc1cccc(-c2cc(C(=O)NCc3cccc(F)c3)n(C)c2)n1)c1ccccc1F` (centres unmarked) [RI-470, N-(3-fluorobenzyl)-4-(6-(2-((1-(2-fluorophenyl)ethyl)amino)acetamido)pyridin-2-yl)-1-methyl-1H-pyrrole-2-carboxamide], at RIPK1 [2], the IC50 was over 10 µM. Moreover, the EC50 in the data set with HT29 cells was over 100 µM.
For `Cc1cc(Oc2ccc(F)c(C(=O)NCc3ccc(F)cc3)n2)cc(C(=O)NCc2ccc(Br)s2)c1` [RI-539] the same measures were over 10 µM and over 30 µM.
For `CCOc1ccccc1CNCC(=O)c1cn2ccc(-c3ccn4nc(NC(=O)C(C)C)nc4c3)cc2n1` [RI-753, N-(7-(2-((2-ethoxybenzyl)glycyl)imidazo[1,2-a]pyridin-7-yl)-[1,2,4]triazolo[1,5-a]pyridin-2-yl)isobutyramide] the same measures were 0.463 µM and 0.064 µM.
For `CC(=O)Nc1cn2cc(-c3ccc(CNC(=O)c4cc(F)ccc4OCC4CCCC4)nc3)ccc2n1` [RI-985] the same measures were over 10 µM and over 30 µM.
As to `CC(NC(=O)c1cn(C)c2ccc(-c3ccn4nc(NC(=O)C5CC5)cc4n3)cc12)c1ccc(F)cc1` (centres unmarked) [RI-1155], the IC50 on RIPK1 [2] was 0.049 µM. The cytotoxicity result in data set [3] is on record as “some cytotoxicity at high concentration (3-10 μM)”. Further, the EC50 in the data set with HT29 cells stood at 0.04 µM.
